In patent US10173971B2, “Picolinamides with fungicidal activity” (DOW AGROSCIENCES LLC, priority 2014, dated 2019):
Like-named read-outs stand apart in the source and are kept apart here.

Key:
Zymoseptoria tritici = test: Fungicidal activity: leaf blotch of wheat (SEPTTR), wheat seedlings, booth sprayer to run-off or track spray; assay type: in vivo; settings: for pest or weed control at 100 ppm: High-Volume Cereal Activity at 100 ppm; for pest or weed control at 121.5 g/ha: Low-Volume Cereal Activity at 121.5 g/H
Puccinia triticina = test: Fungicidal activity: wheat brown rust (PUCCRT), wheat seedlings, booth sprayer to run-off or track spray; assay type: in vivo; settings: for pest or weed control at 100 ppm: High-Volume Cereal Activity at 100 ppm; for pest or weed control at 121.5 g/ha: Low-Volume Cereal Activity at 121.5 g/H
Phakopsora pachyrhizi = test: Fungicidal activity: Asian soybean rust (PHAKPA), soybean seedlings; settings: 25 ppm, soybean plants (variety Williams 82); for Disease Control PHAKPA 1DP: 1 Day Protectant; for Disease Control PHAKPA 3DC: 3 Day Curative
[1] = 24 h, 1 Day Protectant, read-out: SEPTTR 1DP
[2] = 72 h, 3 Day Curative, read-out: SEPTTR 3DC
[3] = 24 h, 1 Day Protectant, read-out: PUCCRT 1DP
[4] = 72 h, 3 Day Curative, read-out: PUCCRT 3DC

SMILES	pest or weed control at 100 ppm (Zymoseptoria tritici; [1]) [%]	pest or weed control at 121.5 g/ha (Zymoseptoria tritici; [1]) [%]	pest or weed control at 121.5 g/ha (Zymoseptoria tritici; [2]) [%]	pest or weed control at 100 ppm (Zymoseptoria tritici; 3DC (Day Curative), read-out: SEPTTR 3DC) [%]	pest or weed control at 100 ppm (Puccinia triticina; [3]) [%]	pest or weed control at 121.5 g/ha (Puccinia triticina; [3]) [%]	pest or weed control at 121.5 g/ha (Puccinia triticina; [4]) [%]	pest or weed control at 100 ppm (Puccinia triticina; 3DC (Day Curative), read-out: PUCCRT 3DC) [%]	Disease Control PHAKPA 1DP (Phakopsora pachyrhizi)	Disease Control PHAKPA 3DC (Phakopsora pachyrhizi)
CCCO[C@H](CC)[C@@H](Cc1ccccc1)[C@H](C)OC(=O)[C@H](C)NC(=O)c1nccc(OC)c1OCOC(C)=O [compound 169]	80 to 100	80 to 100	80 to 100	80 to 100	80 to 100	80 to 100	80 to 100	80 to 100	A (80-100)	B (More than 0-Less than 80)
COc1ccnc(C(=O)N[C@@H](C)C(=O)O[C@@H](C)[C@@H](COCc2ccccc2)Cc2ccccc2)c1OCOC(C)=O [compound 240]	–	0 to 80	80 to 100	–	–	80 to 100	80 to 100	–	A (80-100)	B (More than 0-Less than 80)
COc1ccnc(C(=O)N[C@@H](C)C(=O)O[C@@H](C)[C@H](Cc2ccccc2)C(C)(C)OCc2ccccc2)c1OCOC(C)=O [compound 242]	–	80 to 100	80 to 100	–	–	80 to 100	80 to 100	–	B (More than 0-Less than 80)	–
COc1ccnc(C(=O)N[C@@H](C)C(=O)O[C@@H](C)[C@H](Cc2ccc(Cl)cc2)c2ccccc2)c1OCOC(=O)C(C)C [compound 204]	–	80 to 100	80 to 100	–	–	0 to 80	0 to 80	–	–	–
CC[C@@H](Oc1ccccc1)[C@@H](Cc1ccccc1)[C@H](C)OC(=O)[C@H](C)NC(=O)c1nccc(OC)c1OC(C)=O [compound 194]	–	80 to 100	80 to 100	–	–	80 to 100	0 to 80	–	–	–
COc1cccc(CC(Cc2cccc(OC)c2)[C@H](C)OC(=O)[C@H](C)NC(=O)c2nccc(OC)c2OC(C)=O)c1 [compound 270]	–	0 to 80	–	–	–	80 to 100	0 to 80	–	–	–
COc1ccc(C[C@@H]([C@H](C)OC(=O)[C@H](C)NC(=O)c2nccc(OC)c2OCOC(C)=O)C(C)(C)Oc2ccc(F)cc2F)cc1 [compound 279]	–	0 to 80	80 to 100	–	–	80 to 100	0 to 80	–	–	–
COc1ccnc(C(=O)N[C@@H](C)C(=O)OC(C)C(Cc2ccc(F)cc2)Cc2ccc(F)cc2)c1OCOC(C)=O (stereo partly shown) [compound 268]	–	0 to 80	0 to 80	–	–	80 to 100	80 to 100	–	–	–
COc1ccnc(C(=O)N[C@@H](C)C(=O)O[C@@H](C)[C@H](Cc2ccc(F)cc2)C(C)(C)OCc2ccc(F)cc2)c1OC(C)=O [compound 247]	–	0 to 80	0 to 80	–	–	0 to 80	–	–	–	–
